Measured values as given in patent US11229623B2 (GlaxoSmithKline Intellectual Property (No.2) Limited, priority 2016, dated 2022).
Counter-ions that a name gives are not always drawn.

These compounds were tested against T1, human TRPV4 (Homo sapiens, UniProt Q9HBA0) (assay: FLIPR assay for hTRPV4 expressed in BHK cells: inhibition of Agonist Compound-induced calcium signal). Conditions: hTRPV4 in BHK/AC9 cells, FLIPR calcium signal, agonist at EC80; reported as range class; read-out: IC50.
T1 construct: expressed in transfected cells; host or cells: BHK/AC9 cells transduced with BacMam virus
Format: cell-based
In short: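 BHK/AC9 cells transduced with BacMam human TRPV4 (MOI 78), plated 15,000 per well and cultured 24 h at 37° C. Loaded with 2 μM Fluo-4 AM plus 500 μM Brilliant Black in HBSS for 1-1.5 h at room temperature in the dark; intracellular calcium signal read by FLIPR fluorescence.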

T1 sequence (Q9HBA0 whole entry): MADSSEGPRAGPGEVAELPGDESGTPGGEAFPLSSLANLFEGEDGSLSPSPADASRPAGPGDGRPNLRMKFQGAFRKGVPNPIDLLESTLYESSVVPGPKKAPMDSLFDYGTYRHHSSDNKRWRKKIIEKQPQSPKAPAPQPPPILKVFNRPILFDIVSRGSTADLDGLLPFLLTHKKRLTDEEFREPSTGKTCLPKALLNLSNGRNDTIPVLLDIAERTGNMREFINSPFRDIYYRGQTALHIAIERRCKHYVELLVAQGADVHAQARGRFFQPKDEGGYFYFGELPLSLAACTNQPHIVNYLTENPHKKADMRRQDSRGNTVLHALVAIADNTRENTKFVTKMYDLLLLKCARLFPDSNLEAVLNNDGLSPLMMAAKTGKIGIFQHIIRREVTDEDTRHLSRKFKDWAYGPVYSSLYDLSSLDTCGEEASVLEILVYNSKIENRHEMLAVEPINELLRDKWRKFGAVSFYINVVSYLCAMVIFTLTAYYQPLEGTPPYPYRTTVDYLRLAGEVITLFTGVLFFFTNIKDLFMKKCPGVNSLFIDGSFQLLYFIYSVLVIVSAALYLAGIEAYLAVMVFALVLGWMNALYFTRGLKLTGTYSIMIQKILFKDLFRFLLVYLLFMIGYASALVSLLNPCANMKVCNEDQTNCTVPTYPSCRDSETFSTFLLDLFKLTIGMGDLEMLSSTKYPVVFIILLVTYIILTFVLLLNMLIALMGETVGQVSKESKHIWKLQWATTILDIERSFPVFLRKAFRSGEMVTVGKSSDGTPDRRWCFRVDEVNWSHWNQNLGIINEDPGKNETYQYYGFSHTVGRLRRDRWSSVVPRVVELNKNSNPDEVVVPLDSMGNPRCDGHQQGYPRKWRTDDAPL

Q: How did the IC50 turn out when `N#Cc1ccc(S(=O)(=O)N2C[C@H](Oc3ccc(C#N)c(F)c3)[C@](O)(CO)C2)nc1` [Example 231, 6-(((3R,4S)-4-(4-cyano-3-fluorophenoxy)-3-hydroxy-3-(hydroxymethyl)pyrrolidin-1-yl)sulfonyl)nicotinonitrile] was run?
A: 10 to 100 nM

Q: For `N#Cc1ccc(O[C@H]2CN(S(=O)(=O)c3ccc(Cl)cn3)C[C@@]2(O)CN)cc1F` [Example 233, 4-(((3S,4S)-4-(aminomethyl)-1-((5-chloropyridin-2-yl)sulfonyl)-4-hydroxypyrrolidin-3-yl)oxy)-2-fluorobenzonitrile, Hydrochloride], which IC50 is on record?
A: 10 to 100 nM

Q: Which IC50 does the source give for `N#Cc1ccc(O[C@H]2CN(S(=O)(=O)c3ccc(Cl)cn3)C[C@]2(O)CN)cc1F` [Example 234, 4-(((3S,4R)-4-(aminomethyl)-1-((5-chloropyridin-2-yl)sulfonyl)-4-hydroxypyrrolidin-3-yl)oxy)-2-fluorobenzonitrile, Hydrochloride] here?
A: 10 to 100 nM

Q: How did the IC50 turn out when `N#Cc1ccc(O[C@H]2CN(S(=O)(=O)c3ccc(Cl)cc3C#N)C[C@]2(O)CN)cc1F` [Example 235, 4-(((3S,4R)-4-(aminomethyl)-1-((4-chloro-2-cyanophenyl)sulfonyl)-4-hydroxypyrrolidin-3-yl)oxy)-2-fluorobenzonitrile, Hydrochloride] was run?
A: 0.1 to 10 nM

Q: Which IC50 does the source give for `N#Cc1ccc(O[C@H]2CN(S(=O)(=O)c3ccc(Cl)cc3C#N)C[C@]2(O)CNCCO)cc1F` [Example 236, 4-(((3S,4R)-1-((4-chloro-2-cyanophenyl)sulfonyl)-4-hydroxy-4-(((2-hydroxyethyl)amino)methyl)pyrrolidin-3-yl)oxy)-2-fluorobenzonitrile, 2,2,2-trifluoroacetate] here?
A: 0.1 to 10 nM

Q: For `CNC[C@]1(O)CN(S(=O)(=O)c2ccc(C(F)(F)F)cc2C#N)C[C@@H]1Oc1ccc(C#N)c(F)c1` [Example 237, 4-(((3S,4S)-1-((2-cyano-4-(trifluoromethyl)phenyl)sulfonyl)-4-hydroxy-4-((methylamino)methyl)pyrrolidin-3-yl)oxy)-2-fluorobenzonitrile, 2,2,2-trifluoroacetate], which IC50 is on record?
A: 0.1 to 10 nM

Q: Which IC50 does the source give for `CCNC[C@]1(O)CN(S(=O)(=O)c2ccc(C(F)(F)F)cc2C#N)C[C@@H]1Oc1ccc(C#N)c(F)c1` [Example 238, 4-(((3S,4S)-1-((2-cyano-4-(trifluoromethyl)phenyl)sulfonyl)-4-((ethylamino)methyl)-4-hydroxypyrrolidin-3-yl)oxy)-2-fluorobenzonitrile, 2,2,2-trifluoroacetate] here?
A: 0.1 to 10 nM

Q: For `CC(C)NC[C@]1(O)CN(S(=O)(=O)c2ccc(C(F)(F)F)cc2C#N)C[C@@H]1Oc1ccc(C#N)c(F)c1` [Example 239, 4-(((3S,4S)-1-((2-cyano-4-(trifluoromethyl)phenyl)sulfonyl)-4-hydroxy-4-((isopropylamino)methyl)pyrrolidin-3-yl)oxy)-2-fluorobenzonitrile, 2,2,2-trifluoroacetate], which IC50 is on record?
A: 0.1 to 10 nM

Q: Which IC50 does the source give for `N#Cc1ccc(O[C@H]2CN(S(=O)(=O)c3ccc(Cl)cc3C#N)C[C@@]2(O)CN)cc1F` [Example 240, 4-(((3S,4S)-4-(aminomethyl)-1-((4-chloro-2-cyanophenyl)sulfonyl)-4-hydroxypyrrolidin-3-yl)oxy)-2-fluorobenzonitrile] here?
A: 0.1 to 10 nM

Q: Which IC50 does the source give for `Cn1ncc(Cl)c1S(=O)(=O)N1C[C@H](Oc2ccc(C#N)c(F)c2)[C@](O)(CN)C1` [Example 241, 4-(((3S,4S)-4-(aminomethyl)-1-((4-chloro-1-methyl-1H-pyrazol-5-yl)sulfonyl)-4-hydroxpyrrolidin-3-yl)oxy)-2-fluorobenzonitrile, 2,2,2-trifluoroacetate] here?
A: 10 to 100 nM

Q: With `N#Cc1ccc(O[C@H]2CN(S(=O)(=O)c3ccc(F)cn3)C[C@@]2(O)CN)cc1F` [Example 242, 4-(((3S,4S)-4-(aminomethyl)-1-((5-fluoropyridin-2-yl)sulfonyl)-4-hydroxpyrrolidin-3-yl)oxy)-2-fluorobenzonitrile, 2,2,2-trifluoroacetate] as the compound, how does the IC50 read?
A: 10 to 100 nM

Q: For `N#Cc1ccc(S(=O)(=O)N2C[C@H](Oc3ccc(C#N)c(F)c3)[C@](O)(CN)C2)cn1` [Example 243, 5-(((3S,4S)-3-(aminomethyl)-4-(4-cyano-3-fluorophenoxy)-3-hydroxpyrrolidin-1-yl)sulfonyl) picolinonitrile, 2,2,2-trifluoroacetate], which IC50 is on record?
A: 10 to 100 nM

Q: Which IC50 does the source give for `N#Cc1ccc(O[C@H]2CN(S(=O)(=O)c3ccc(C(F)F)cn3)C[C@@]2(O)CN)cc1F` [Example 244, 4-(((3S,4S)-4-(aminomethyl)-1-((5-(difluoromethyl)pyridin-2-yl)sulfonyl)-4-hydroxpyrrolidin-3-yl)oxy)-2-fluorobenzonitrile] here?
A: 10 to 100 nM

Q: With `N#Cc1ccc(O[C@H]2CN(S(=O)(=O)c3ccc(C(F)(F)F)nc3)C[C@@]2(O)CN)cc1F` [Example 245, 4-(((3S,4S)-4-(aminomethyl)-4-hydroxy-1-((6-(trifluoromethyl)pyridin-3-yl)sulfonyl)pyrrolidin-3-yl)oxy)-2-fluorobenzonitrile, Hydrochloride] as the compound, how does the IC50 read?
A: 10 to 100 nM

Q: Which IC50 does the source give for `N#Cc1ccc(O[C@H]2CN(S(=O)(=O)c3ccc(Cl)cn3)C[C@@]2(O)CN)cc1` [Example 246, 4-(((3S,4S)-4-(aminomethyl)-1-((5-chloropyridin-2-yl)sulfonyl)-4-hydroxpyrrolidin-3-yl)oxy)benzonitrile] here?
A: 10 to 100 nM

Q: Which IC50 does the source give for `N#Cc1ccc(O[C@H]2CN(S(=O)(=O)c3ccc(OC(F)F)cn3)C[C@@]2(O)CN)cc1F` [Example 247, 4-(((3S,4S)-4-(aminomethyl)-1-((5-(difluoromethoxy)pyridin-2-yl)sulfonyl)-4-hydroxypyrrolidin-3-yl)oxy)-2-fluorobenzonitrile, 2,2,2-trifluoroacetate] here?
A: 10 to 100 nM

Q: How did the IC50 turn out when `N#Cc1ccc(O[C@H]2CN(S(=O)(=O)c3ccc(OC(F)(F)F)cn3)C[C@@]2(O)CN)cc1F` [Example 248, 4-(((3S,4S)-4-(aminomethyl)-4-hydroxy-1-((5-(trifluoromethoxy)pyridin-2-yl)sulfonyl)pyrrolidin-3-yl)oxy)-2-fluorobenzonitrile] was run?
A: 10 to 100 nM

Q: With `N#Cc1ccc(O[C@H]2CN(S(=O)(=O)c3ccc(OC(F)(F)F)nc3)C[C@@]2(O)CN)cc1F` [Example 249, 4-(((3S,4S)-4-(aminomethyl)-4-hydroxy-1-((6-(trifluoromethoxy)pyridin-3-yl)sulfonyl)pyrrolidin-3-yl)oxy)-2-fluorobenzonitrile, Hydrochloride] as the compound, how does the IC50 read?
A: 10 to 100 nM

Q: With `N#Cc1ccc(O[C@H]2CN(S(=O)(=O)c3ccc(I)cn3)C[C@@]2(O)CN)cc1F` [Example 250, 4-(((3S,4S)-4-(aminomethyl)-4-hydroxy-1-((5-iodopyridin-2-yl)sulfonyl)pyrrolidin-3-yl)oxy)-2-fluorobenzonitrile, 2,2,2-trifluoroacetate] as the compound, how does the IC50 read?
A: 0.1 to 10 nM

Q: How did the IC50 turn out when `N#Cc1ccc(O[C@H]2CN(S(=O)(=O)c3ccc(Br)cn3)C[C@@]2(O)CN)cc1F` [Example 251, 4-(((3S,4S)-4-(aminomethyl)-1-((5-bromopyridin-2-yl)sulfonyl)-4-hydroxpyrrolidin-3-yl)oxy)-2-fluorobenzonitrile, 2,2,2-trifluoroacetate] was run?
A: 0.1 to 10 nM

Q: Which IC50 does the source give for `CN1CCO[C@]2(C1)CN(S(=O)(=O)c1ccc(Cl)cc1C#N)C[C@@H]2Oc1ccc(C#N)c(F)c1` [Example 252, 4-(((4S,5R)-2-((4-chloro-2-cyanophenyl)sulfonyl)-9-methyl-6-oxa-2,9-diazaspiro[4.5]decan-4-yl)oxy)-2-fluorobenzonitrile] here?
A: 0.1 to 10 nM

Q: `N#Cc1ccc(O[C@H]2CN(S(=O)(=O)c3ccc(Cl)cc3C#N)C[C@@]23CNC(=O)O3)cc1F` [Example 254, 4-(((5S,9S)-7-((4-chloro-2-cyanophenyl)sulfonyl)-2-oxo-1-oxa-3,7-diazaspiro[4.4]nonan-9-yl)oxy)-2-fluorobenzonitrile] was tested. Which IC50 did it give?
A: 10 to 100 nM

Q: Which IC50 does the source give for `N#Cc1ccc(O[C@H]2CN(S(=O)(=O)c3ccc(Cl)cc3C#N)C[C@]23CNC(=O)O3)cc1F` [Example 255, 4-(((5R,9S)-7-((4-chloro-2-cyanophenyl)sulfonyl)-2-oxo-1-oxa-3,7-diazaspiro[4.4]nonan-9-yl)oxy)-2-fluorobenzonitrile] here?
A: 0.1 to 10 nM

Q: For `C[C@@H](N)[C@]1(O)CN(S(=O)(=O)c2ccc(Cl)cn2)C[C@@H]1Oc1ccc(C#N)c(F)c1` [Example 256, 4-(((3S,4R)-4-((R)-1-aminoethyl)-1-((5-chloropyridin-2-yl)sulfonyl)-4-hydroxypyrrolidin-3-yl)oxy)-2-fluorobenzonitrile, 2,2,2-trifluoroacetate], which IC50 is on record?
A: 10 to 100 nM

Q: `C[C@H](N)[C@]1(O)CN(S(=O)(=O)c2ccc(Cl)cn2)C[C@@H]1Oc1ccc(C#N)c(F)c1` [Example 257, 4-(((3S,4R)-4-((S)-1-aminoethyl)-1-((5-chloropyridin-2-yl)sulfonyl)-4-hydroxypyrrolidin-3-yl)oxy)-2-fluorobenzonitrile, 2,2,2-trifluoroacetate] was tested. Which IC50 did it give?
A: 10 to 100 nM

Q: With `N#Cc1ccc(O[C@H]2CN(S(=O)(=O)c3ccc(OC(F)(F)F)cc3C#N)C[C@@]2(O)CO)cc1F` [compound 232, 4-(((3S,4R)-1-((2-cyano-4-(trifluoromethoxy)phenyl)sulfonyl)-4-hydroxy-4-(hydroxymethyl)pyrrolidin-3-yl)oxy)-2-fluorobenzonitrile] as the compound, how does the IC50 read?
A: 0.1 to 10 nM

Q: For `N#Cc1ccc(O[C@H]2CN(S(=O)(=O)c3ccc(Cl)cc3C#N)C[C@@]23CNCCO3)cc1F` [compound 253], which IC50 is on record?
A: 0.1 to 10 nM
